We go through 10 molecules from patent US20050101595A1, “N-containing cycloalkyl-substituted amino-thiazole derivatives and pharmaceutical compositions for inhibiting cell proliferation and methods for their use” (PFIZER INC., priority 2003, published 2005).

Structures are written as SMILES. Read-outs that look alike come from different tables or passages of the source.

In test [1] the target is human CDK4 and genetically truncated (1-264) cyclin D3 (Homo sapiens, UniProt P11802). Description: Inhibition of CDK4/Cyclin D Retinoblastoma Kinase Activity. Particulars: apparent Ki, CDK4/truncated cyclin D3, Rb fragment substrate, 25 μM ATP. The format is biochemical. An outline of the steps: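 The enzyme complex (5 nM), expressed in co-infected insect cells, was incubated with recombinant Rb fragment, 25 μM radiolabelled ATP and 2% DMSO at 30 °C. Reactions were stopped with EDTA after 20 minutes, or 60 minutes for tight-binding inhibitors. Apparent Ki values came from competitive inhibition fits.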

In test [2] the target is CDK2/Cyclin A (Homo sapiens, UniProt P24941). In words: Inhibition of CDK2/Cyclin A Retinoblastoma Kinase Activity. The format is biochemical. Particulars: apparent Ki, CDK2/proteolyzed cyclin A, Rb fragment substrate, 25 μM ATP. An outline of the steps:
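CDK2 (10 or 19 nM), insect-cell expressed, gel-filtration purified with truncated cyclin A; Rb fragment substrate; 25 μM ATP; 10 mM HEPES pH 7.4, 10 mM MgCl2; 30° C, 60 or 75 min; EDTA stop; phosphocellulose/nitrocellulose capture, phosphorimager. % inhibition vs DMSO control, no-enzyme background subtracted.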

Test [3] has as its system HCT-116 cell line. Description: Inhibition of cell growth, tetrazolium salt (MTT) assay. The test is classed as cell-based. Particulars: Homo sapiens, HCT-116, 120 h, MTT, three to five days. An outline of the steps:
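Growth inhibition by MTT reduction at 540 nm (0.2 mg/mL, 4 h at 37° C, formazan dissolved in DMSO), normalized to cells given only 0.5% v/v DMSO. HCT-116 cultures in McCoy's 5A were dosed 4 h post-plating and kept three to five days at 37° C, 5% CO2.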

Setting [4] is: first HCT-116 column (c4), read-out: HCT-116 IC50.
The mark [5] stands for this setting: second HCT-116 column (c5), read-out: HCT-116 IC50.

Sequence of human CDK4 and genetically truncated (1-264) cyclin D3 (P11802 whole entry, the tested form may be a part): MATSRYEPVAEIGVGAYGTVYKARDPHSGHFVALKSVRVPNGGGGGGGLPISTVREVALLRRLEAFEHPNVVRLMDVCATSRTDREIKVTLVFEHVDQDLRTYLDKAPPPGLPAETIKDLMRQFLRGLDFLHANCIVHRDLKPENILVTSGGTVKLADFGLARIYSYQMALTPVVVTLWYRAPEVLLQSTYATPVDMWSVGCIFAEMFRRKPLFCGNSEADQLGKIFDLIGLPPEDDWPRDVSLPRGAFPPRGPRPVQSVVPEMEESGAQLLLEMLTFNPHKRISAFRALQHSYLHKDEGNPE
Sequence of human CDK4 and genetically truncated (1-264) cyclin D3 (P30281 1-264 partner): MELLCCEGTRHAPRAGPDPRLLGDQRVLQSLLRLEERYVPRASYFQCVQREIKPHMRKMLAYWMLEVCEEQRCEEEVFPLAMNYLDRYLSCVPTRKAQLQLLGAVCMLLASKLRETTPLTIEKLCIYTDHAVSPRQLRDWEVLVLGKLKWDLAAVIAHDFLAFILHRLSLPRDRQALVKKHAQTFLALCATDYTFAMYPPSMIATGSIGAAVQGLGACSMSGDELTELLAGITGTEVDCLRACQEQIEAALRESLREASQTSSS

With `Nc1nc(NC2CCN(C(=O)c3ccc(Cl)nc3)CC2)sc1C(=O)c1c(F)cccc1F` [Example C9, 1-(4-Amino-2-{1-[-(6-chloro-pyridin-3-yl)-methanoyl]-piperidin-4-ylamino}-thiazol-5-yl)-1-(2,6-difluoro-phenyl)-methanone], the Ki in test [1] is 20 nM; in test [2], 67 nM. Moreover, the IC50 – broadly, the point on the concentration scale where inhibition reaches its midpoint – in test [3] (setting [4]) stood at 590 nM; in test [3] (setting [5]), 1300 nM.
As to `Nc1nc(NC2CCN(C(=O)c3ccno3)CC2)sc1C(=O)c1c(F)cccc1F` [Example C10, 1-{4-Amino-2-[1-(1-isoxazol-5-yl-methanoyl)-piperidin-4-ylamino]-thiazol-5-yl}1-(2,6-difluoro-phenyl)-methanone], the figures for the Ki in test [1] and in test [2] were 22 nM and 39 nM, respectively. The figures for the 50% inhibitory concentration (IC50) in test [3] (setting [4]) and in test [3] (setting [5]) were 750 nM and 2100 nM, respectively.
Consider `Nc1nc(NC2CCN(C(=S)Oc3ccc(F)cc3)CC2)sc1C(=O)c1c(F)cccc1F` [Example C11, 4-[4-Amino-5-(2,6-difluoro-benzoyl)-thiazol-2-ylamino}-piperidine-1-carbothioic acid —O-(4-Fluoro-phenyl) ester], for which the Ki was found to be 10 nM in test [1] and 6.5 nM in test [2]. In addition, the IC50 came out at 400 nM in test [3] (setting [4]) and 2700 nM in test [3] (setting [5]).
For `Nc1nc(NC2CCN(C(=O)c3cccc([N+](=O)[O-])c3)CC2)sc1C(=O)c1c(F)cccc1F` [Example C12, 1-(4-Amino-2-{1-[1-(3-nitro-phenyl)-methanoyl]-piperidin-4-ylamino}-thiazol-5-yl)-1-(2,6-difluoro-phenyl)-methanone], the Ki in test [1] was 12 nM; in test [2], 59 nM. Also, the IC50 came out at 220 nM in test [3] (setting [4]) and 510 nM in test [3] (setting [5]).
Take `Nc1nc(NC2CCN(C(=O)c3ccncc3)CC2)sc1C(=O)c1c(F)cccc1F` [Example C13]: the Ki in test [1] was determined as 18 nM; in test [2], 53 nM. For the same molecule, the IC50 in test [3] (setting [4]) worked out at 2800 nM; in test [3] (setting [5]), 5000 nM.
Take `Nc1nc(NC2CCN(C(=O)c3c[nH]cn3)CC2)sc1C(=O)c1c(F)cccc1F` [Example C14, 1-{4-Amino-2-[1-(1-1H-imidazol-4-yl-methanoyl)-piperidin-4-ylamino]-thiazol-5-yl}-1-(2,6-difluoro-phenyl)-methanone]: the values for the Ki in test [1] and in test [2] were 66 nM and 95 nM, respectively. Moreover, the half-inhibitory concentration (IC50) in test [3] (setting [4]) and in test [3] (setting [5]) was more than 5000 nM throughout.
Consider `Cn1cncc1C(=O)N1CCC(Nc2nc(N)c(C(=O)c3c(F)cccc3F)s2)CC1` [Example C15, 1-(4-Amino-2-{1-[1-(3-methyl-3H-imidazol-4-yl)-methanoyl]-piperidin-4-ylamino}-thiazol-5-y)-1-(2,6-difluoro-phenyl)-methanone], for which the Ki in test [1] stood at 51 nM; in test [2], 150 nM. Moreover, the half-maximal inhibitory concentration (IC50) in test [3] (setting [4]) and in test [3] (setting [5]) was more than 5000 nM in each case.
Regarding `Nc1nc(NC2CCN(C(=O)Oc3ccc([N+](=O)[O-])cc3)CC2)sc1C(=O)c1c(F)cccc1F` [Example C16, 4-[4-Amino-5-(2,6-difluoro-benzoyl)-thiazol-2-ylamino]-piperidine-1-carboxylic acid 4-nitro-phenyl ester], the figures for the Ki in test [1] and in test [2] were 7.5 nM and 18 nM, respectively. Further, the IC50 in test [3] (read-out: HCT-116 IC50, first HCT-116 column (c4)) amounted to 130 nM; in test [3] (read-out: HCT-116 IC50, second HCT-116 column (c5)) it was 400 nM.
On to `Nc1nc(NC2CCN(C(=O)n3ccnc3)CC2)sc1C(=O)c1c(F)cccc1F` [Example C17, {4-[4-Amino-5-(2,6-difluoro-benzoyl)-thiazol-2-ylamino]-piperidin-1-yl}-imidazol-1-yl-methanone], for which the Ki in test [1] amounted to 21 nM; in test [2] it was 17 nM. Moreover, the IC50 stood at 2100 nM in test [3] (setting [4]) and 4400 nM in test [3] (setting [5]).
With `CN1CCC(C(=O)N2CCC(Nc3nc(N)c(C(=O)c4c(F)cccc4F)s3)CC2)CC1` [Example D1, 1-(4-Amino-2-{1-[1-(1-methyl-piperidin-4-yl)-methanoyl]-piperidin-4-ylamino}-thiazol-5-yl)-1-(2,6-difluoro-phenyl)-methanone], the Ki in test [1] stood at 130 nM; in test [2] it was 460 nM. Further, the IC50 in test [3] (setting [4]) is more than 5000 nM.
